Measurements reported in US20260315608A1, “Carrier Peptide Fragment and Use Thereof” (TOAGOSEI CO., LTD., priority 2022, published 2026).
Primed or numbered codes have the meaning given here. FAM″ = C-terminal FAM dye

System: NSC-34 cells
Assay: Evaluation on cell membrane permeability by flow cytometry (median fluorescence intensity)
Assay type: cell-based, mouse
Details: for MFI (median fluorescence intensity): 25 μM in well, 0.42% DMSO, 20 hours at 37° C., 10% FBS-containing DMEM, detector FL2; for cell membrane permeability: 25 μM, 20 hours, FAM as foreign substance, in words
Protocol: As the eukaryotic cells, NSC-34 cells (mouse motor neuron-like hybrid cell line) were used and the cell membrane permeability of the samples 1 to 7 was analyzed. In Examples 1 to 7, the prepared sample solutions 1 to 7 were used, respectively, and in Example 8, a FAM solution was used.
The NSC-34 cells were cultured in 10% fetal bovine serum (FBS)-containing Dulbecco's modified Eagle's medium (DMEM (Cat No. 044-29765, manufactured by FUJIFILM Wako Pure Chemical Corporation)), which is a normal culture medium.
The NSC-34 cells that adhered to a culture plate were cleaned with PBS and then, a 0.25%-trypsin/EDTA solution was added thereto, and incubation was performed for three minutes at 37° C. After the incubation, the aforementioned 10% FBS-containing DMEM was added to deactivate trypsin and then, five-minute centrifugal separation was performed at 150×g to precipitate the cells. After the supernatant generated by the centrifugal separation was removed, the 10% FBS-containing DMEM was added to the precipitate (cell pellet) to prepare a cell suspension of about 2×10^5 cells/mL. The cell suspension was added by 1 mL to a well of a commercially available six-hole (well) plate (manufactured by AGC TECHNO GLASS Co., Ltd.) so as to seed the cell (about 2×10^5 cells/well). In addition, the 6 mM sample solution 1 was diluted with the 10% FBS-containing DMEM to prepare the sample solution 1 in which the concentration of the sample 1 was 50 μM. Then, 1 mL of the 50 μM sample solution 1 was added to the well (that is, so that the concentration of the sample 1 became 25 µM and the DMSO concentration became 0.42% in the culture solution in the well). After that, the cell was incubated for 20 hours at 37° C. under a 5% CO2 condition.
After the 20-hour incubation, the culture supernatant was removed from the well and the cells in the well were cleaned twice with 1 mL of PBS. Next, 200 μL of the 0.25% trypsin/EDTA solution was added to the well and the incubation was performed for three minutes at 37° C. After the incubation, 400 μL of the 10% FBS-containing DMEM was added to the well to deactivate the trypsin. Subsequently, the cell suspension in the well was transferred to a tube and the cells were collected. After that, 600 μL of PBS was added further to the well to clean the well. Then, PBS in the well was transferred to the tube, so that the cells remaining in the well were collected in the tube. This tube was subjected to five-minute centrifugal separation at 4° C. under a condition of 210×g. After the centrifugal separation, the supernatant was removed and the precipitate (cell pellet) was suspended (cleaned) with 1 mL of PBS, which was followed by the centrifugal separation under the same condition as that described above. After this operation was repeated twice, the supernatant was removed and thus, the cells (cell pellet) cultured in a culture medium containing the sample 1 were obtained.
Regarding the obtained cells (cell pellet), the cell membrane permeability of the sample 1 was analyzed using a flow cytometer. As the flow cytometer, On-Chip Flowcytometer (manufactured by On-Chip Biotechnologies Co., LTD.) was used.
For such an analysis, the obtained cell pellet was suspended with 100 μL of on-chip T buffer to prepare a cell suspension for analysis.
Using the aforementioned flow cytometer, gating based on forward scatter (FSC) and side scatter (SSC) was performed to set a gate about a cell group to be analyzed, and the fluorescence intensity was measured about the cell group in this gate. Note that the analysis was performed so that the cell group contained at least 10000 cells or more. The fluorescence intensity was measured using a fluorescence detector FL2 of the flow cytometer (optimum detection wavelength around 543 nm) capable of detecting the fluorescence wavelength of FAM. […]

Substance | MFI (median fluorescence intensity) | cell membrane permeability
Ac-KKRTLRKDEDERKKR-FAM (Ac-KKRTLRKDEDERKKR-{FAM}) [Example 6] | 15.2 | –
Ac-KKRTLRKDERKKR-FAM (Ac-KKRTLRKDERKKR-{FAM}) [Example 1] | 16.3 | have the cell membrane permeability
Ac-KKRTLRKEDRKKR-FAM (Ac-KKRTLRKEDRKKR-{FAM}) [Example 2] | 15.7 | have the cell membrane permeability
Ac-KKRTLRKEEDDRKKR-FAM (Ac-KKRTLRKEEDDRKKR-{FAM}) [Example 4] | 14.3 | –
Ac-KKRTLRKDDEERKKR-FAM (Ac-KKRTLRKDDEERKKR-{FAM}) [Example 5] | 14.8 | –
5 (6)-carboxyfluorescein [Example 8, reference compound] | 11 | –
Ac-KKRTLRKEDEDRKKR-FAM (Ac-KKRTLRKEDEDRKKR-{FAM″}) [Example 3] | 13.8 | –
Ac-KKRTLRKEDEDEDRKKR-FAM (Ac-KKRTLRKEDEDEDRKKR-{FAM}) [Example 7] | 14.3 | –
